{"source": "paper PMC4884984", "about": "“Identification of approved and investigational drugs that inhibit hypoxia-inducible factor-1 signaling” (Oncotarget, 2016)", "assay_type_in_all_cases": "cell-based, human", "key": {"[1]": {"tested_on": "HIF-1α–NanoLuc", "assay": "HIF-1α–NanoLuc reporter gene assay (qHTS primary and confirmatory screens)", "details": "for Effect on HIF-1α–NanoLuc level / luciferase activity, in words: HCT116 reporter cells"}, "[2]": {"tested_on": "hypoxia response element-beta-lactamase (HRE–bla)", "assay": "HRE-bla reporter gene assay in ME-180 cells", "details": "for Emax / IC50: Homo sapiens, ME-180; for Emax: read-out: HRE–bla confirmatory Efficacy; for IC50: read-out: HRE–bla confirmatory IC50; for Effect on HRE–bla transcriptional activity, in words: ME-180 cells", "description": "(§1) Cell culture of HRE–bla ME-180 cells (Cat. No. K1644, Life Technologies) and HRE–bla assay were conducted according to a reported protocol [6]. […] The fluorescence signals (460/25 nm and 530/20 nm) of CCF4 and luminescence signals of CellTiter-Glo were acquired on an Envision and a ViewLux plate readers (Perkin Elmer), respectively."}, "[3]": {"tested_on": "HIF-1α–NanoLuc HCT116 cells", "assay": "Viability (Luc): CellTiter-Glo counter screen in HIF-1α–NanoLuc cells", "details": "Table S7, 1% O2, 18 h"}, "[4]": {"tested_on": "HRE–bla ME-180 cells", "assay": "Viability (BLA): CellTiter-Glo counter screen in HRE–bla cells", "details": "for Viability (BLA) confirmatory IC50: Table S7, 1% O2, 18 h", "description": "as §1"}, "[5]": {"details": "Homo sapiens, Table S1, primary screen, hypoxia 1% O2, 18 h, read-out: IC50 (primary screen, HIF-1α–NanoLuc assay)"}, "[6]": {"details": "Homo sapiens, Table S1, primary screen, read-out: Efficacy (primary screen, HIF-1α–NanoLuc assay)"}}, "note": "Entries after “also recorded” stand apart in the source; their conditions may differ. Where two headings read alike, the source gives them in different places."}
{"compound": "CCOC(=O)C1(c2ccccc2)CCN(CCC(C#N)(c2ccccc2)c2ccccc2)CC1", "note": "[Diphenoxylate]", "values": [{"measurement": "Emax", "setting": "[1]; Homo sapiens, read-out: HIF-1α–NanoLuc confirmatory Efficacy", "value": "104 ± 12", "unit": "%"}, {"measurement": "IC50", "setting": "[1]; Homo sapiens, read-out: HIF-1α–NanoLuc confirmatory IC50", "value": "13700 ± 930", "unit": "nM"}, {"measurement": "Emax", "setting": "[1]; Homo sapiens, read-out: HIF-1α–NanoLuc primary Efficacy", "value": 82, "unit": "%"}, {"measurement": "IC50", "setting": "[1]; Homo sapiens, read-out: HIF-1α–NanoLuc primary IC50", "value": 16800, "unit": "nM"}, {"measurement": "Emax", "setting": "[2]; Table S7, confirmatory screen", "value": "60 ± 4", "unit": "%"}, {"measurement": "IC50", "setting": "[2]; Table S7, confirmatory screen", "value": "7800 ± 530", "unit": "nM"}, {"measurement": "Viability (Luc) confirmatory IC50", "setting": "[3]", "value": "Inactive"}, {"measurement": "Viability (BLA) confirmatory IC50", "setting": "[4]", "value": "Inactive"}]}
{"compound": "CC(=O)Oc1ccc(C2(c3ccc(OC(C)=O)cc3)C(=O)Nc3ccccc32)cc1", "note": "[Oxyphenisatin acetate]", "values": [{"measurement": "Emax", "setting": "[1]; Homo sapiens, Table S7, confirmatory screen, read-out: HIF-1α–NanoLuc confirmatory Efficacy", "value": "55 ± 9", "unit": "%"}, {"measurement": "IC50", "setting": "[1]; Homo sapiens, Table S7, confirmatory screen, read-out: HIF-1α–NanoLuc confirmatory IC50", "value": "2470 ± 790", "unit": "nM"}, {"measurement": "Emax", "setting": "[1]; Homo sapiens, Table S7, primary screen, read-out: HIF-1α–NanoLuc primary Efficacy", "value": 84, "unit": "%"}, {"measurement": "IC50", "setting": "[1]; Homo sapiens, Table S7, primary screen, read-out: HIF-1α–NanoLuc primary IC50", "value": 1330, "unit": "nM"}, {"measurement": "Emax", "setting": "[2]; Table S7, confirmatory screen", "value": "92 ± 3", "unit": "%"}, {"measurement": "IC50", "setting": "[2]; Table S7, confirmatory screen", "value": "190 ± 10", "unit": "nM"}, {"measurement": "Viability (Luc) confirmatory IC50", "setting": "[3]", "value": "Inactive"}, {"measurement": "IC50", "setting": "[4]; Homo sapiens, ME-180, Table S7, confirmatory screen, 1% O2, 18 h", "value": "200 ± 10", "unit": "nM"}]}
{"compound": "CC[C@H]1CN2CCc3cc(OC)c(OC)cc3[C@@H]2C[C@@H]1C[C@H]1NCCc2cc(OC)c(OC)cc21", "note": "[Emetine]", "values": [{"measurement": "Emax", "setting": "[2]; Table S7, confirmatory screen", "value": "91 ± 1", "unit": "%"}, {"measurement": "IC50", "setting": "[2]; Table S7, confirmatory screen", "value": "290 ± 50", "unit": "nM"}, {"measurement": "Viability (BLA) confirmatory IC50", "setting": "[4]", "value": "Inactive"}]}
{"compound": "CC(C)C[C@H](NC(=O)[C@H](Cc1ccccc1)NC(=O)c1cnccn1)B(O)O", "note": "[bortezomib]", "values": [{"measurement": "Effect on HIF-1α–NanoLuc level / luciferase activity, in words", "setting": "[1]", "value": "resulted in protein accumulation and increased luciferase activity; also recorded: potently induced accumulation of HIF-1α–NanoLuc proteins"}, {"measurement": "Effect on HRE–bla transcriptional activity, in words", "setting": "[2]", "value": "inhibited the transcriptional activity of HRE–bla"}]}
{"compound": "CC(C)C[C@H](NC(=O)[C@H](CCc1ccccc1)NC(=O)CN1CCOCC1)C(=O)N[C@@H](Cc1ccccc1)C(=O)N[C@@H](CC(C)C)C(=O)[C@@]1(C)CO1", "note": "[carfilzomib]", "values": [{"measurement": "Effect on HIF-1α–NanoLuc level / luciferase activity, in words", "setting": "[1]", "value": "potently induced accumulation of HIF-1α–NanoLuc proteins"}, {"measurement": "Effect on HRE–bla transcriptional activity, in words", "setting": "[2]", "value": "inhibited the transcriptional activity of HRE–bla"}]}
{"compound": "O=c1c(O)c(-c2ccc(O)c(O)c2)oc2cc(O)cc(O)c12", "note": "[Quercetine]", "values": [{"measurement": "Emax", "setting": "[2]; Table S7, confirmatory screen", "value": "84 ± 10", "unit": "%"}, {"measurement": "IC50", "setting": "[2]; Table S7, confirmatory screen", "value": "12800 ± 840", "unit": "nM"}, {"measurement": "Viability (BLA) confirmatory IC50", "setting": "[4]", "value": "Inactive"}]}
{"compound": "COc1cccc2c1C(=O)c1c(O)c3c(c(O)c1C2=O)C[C@@](O)(C(=O)CO)C[C@@H]3O[C@H]1C[C@H](N)[C@@H](O)[C@H](C)O1", "note": "[Epirubicin]", "values": [{"measurement": "IC50", "setting": "[1]; [5]", "value": 300, "unit": "nM"}, {"measurement": "Emax", "setting": "[1]; [6]", "value": 108, "unit": "%"}]}
{"compound": "COc1ccc2cc3[n+](cc2c1OC)CCc1cc2c(cc1-3)OCO2", "note": "[Berberine]", "values": [{"measurement": "IC50", "setting": "[1]; [5]", "value": 940, "unit": "nM"}, {"measurement": "Emax", "setting": "[1]; [6]", "value": 116, "unit": "%"}]}
{"compound": "COCCOC(=O)C1=C(C)NC(C)=C(C(=O)OC/C=C/c2ccccc2)C1c1cccc([N+](=O)[O-])c1", "note": "(centres unmarked) [Cilnidipine]", "values": [{"measurement": "IC50", "setting": "[1]; [5]", "value": 10600, "unit": "nM"}, {"measurement": "Emax", "setting": "[1]; [6]", "value": 63, "unit": "%"}]}
{"compound": "Cc1oncc1C(=O)Nc1ccc(C(F)(F)F)cc1", "note": "[Leflunomide]", "values": [{"measurement": "HRE–bla confirmatory IC50", "setting": "[2]; Table S7, confirmatory screen", "value": "Inactive"}, {"measurement": "Viability (BLA) confirmatory IC50", "setting": "[4]", "value": "Inactive"}]}
{"compound": "CN1CC[C@H](c2c(O)cc(O)c3c(=O)cc(-c4ccccc4Cl)oc23)[C@H](O)C1", "note": "[Flavopiridol]", "values": [{"measurement": "IC50", "setting": "[1]; [5]", "value": 1060, "unit": "nM"}, {"measurement": "Emax", "setting": "[1]; [6]", "value": 76, "unit": "%"}]}
{"compound": "NC1(c2ccc(-c3nc4ccn5c(=O)[nH]nc5c4cc3-c3ccccc3)cc2)CCC1", "note": "[MK-2206]", "values": [{"measurement": "Emax", "setting": "[1]; Homo sapiens, Table S2, primary screen, read-out: Pathway inhibitors (primary screen) HIF-1α–NanoLuc Activity Efficacy", "value": 45, "unit": "%"}, {"measurement": "IC50", "setting": "[1]; Homo sapiens, Table S2, primary screen, read-out: Pathway inhibitors (primary screen) HIF-1α–NanoLuc Activity IC50", "value": 420, "unit": "nM"}]}
{"compound": "COc1cc([C@@H]2c3cc4c(cc3[C@H](O)[C@H]3COC(=O)[C@@H]23)OCO4)cc(OC)c1OC", "note": "[Picropodphyllin]", "values": [{"measurement": "Pathway inhibitors (primary screen) HIF-1α–NanoLuc Activity Efficacy", "setting": "[1]; Table S2, primary screen", "value": 159, "unit": "%"}, {"measurement": "IC50", "setting": "[1]; Table S2, primary screen, read-out: Pathway inhibitors (primary screen) HIF-1α–NanoLuc Activity IC50", "value": 530, "unit": "nM"}, {"measurement": "Pathway inhibitors (validation) HIF-1α–NanoLuc Activity Efficacy", "setting": "[1]; Table S2, validation", "value": 159, "unit": "%"}, {"measurement": "IC50", "setting": "[1]; Table S2, validation, read-out: Pathway inhibitors (validation) HIF-1α–NanoLuc Activity IC50", "value": 530, "unit": "nM"}]}
{"compound": "COc1cccc2c1C(=O)c1c(O)c3c(c(O)c1C2=O)C[C@@](O)(C(=O)CO)C[C@@H]3O[C@H]1C[C@H](N2CCO[C@H](OC)C2)[C@H](O)[C@H](C)O1", "note": "[Nemorubicin]", "values": [{"measurement": "IC50", "setting": "[1]; Homo sapiens, 18 h, read-out: IC50 (primary screen, HIF-1α–NanoLuc assay)", "value": 80, "unit": "nM"}, {"measurement": "Emax", "setting": "[1]; Homo sapiens, read-out: Efficacy (primary screen, HIF-1α–NanoLuc assay)", "value": 111, "unit": "%"}]}
